Measured values from patent US9089532B2, “Stable dosage form of phenylalanine derivatives” (Wilex AG, priority 2004, dated 2015).

Experiments:
Assay type in all cases: physicochemical
[1] = pH-dependency of active ingredient breakdown at 60° C.; conditions: ethanol/water 1:1, 60° C., up to 48 h
Experimental: The pH-dependency of active ingredient breakdown (WX-UK1) was investigated at three different pH values with heat treatment at 60° C. by dissolving 2.5 mg of WX-UK1 in 1 ml of ethanol/water (1:1 vol/vol). This solution was aliquoted into three vessels. One aliquot was adjusted to pH 2 by addition of 20 μl of 1 N hydrochloric acid, a second aliquot was adjusted to pH 11 by addition of 20 μl of 2 N sodium hydroxide solution and the third aliquot was left at a neutral pH. After incubation, the solutions were analysed at defined points in time (0, 5, 12 and 48 h) by means of a stability-indicating HPLC method.

[2] = Stability of sodium acetate-buffered solutions of various molarities at 60° C.; conditions: buffering the formulation with sodium acetate pH 5, 60° C., relative to unbuffered formulation
Experimental: The stability study was carried out at 60° C. in order to achieve accelerated breakdown of WX-UK1 (FIG. 5). The WX-UK1 peak area percentage, determined by a stability-indicating HPLC method, was evaluated.

[3] = Stability study at 40° C./75% RH of the unbuffered PG/EtOH/water formulation (impurity content, pH value); conditions: 40 mg/ml in PG/ethanol/water, stored at 40° C., 2-12 weeks
Experimental: At the same time, the pH value of the formulation rose from 5.1 to 8.7 over a period of 12 weeks (FIG. 1).
0.4 ml of propylene glycol (PG) and 0.1 ml of ethanol were added in succession to 40 mg of WX-UK1. […] The remaining water (approx. 0.2 ml) was then added. The solution was then stored at 40° C. and the pH value and purity of the solution were in each case analysed after a period of 2, 4, 6, 8 and 12 weeks. To this end, 250 μl of the WX-UK1 solution were transferred into a 100 ml measuring flask and made up with water/acetonitrile (50:50 vol/vol) to the graduation mark (concentration: approx. 0.1 mg/ml of WX-UK1). 20 μl of this dilution were then analysed by means of a stability-indicating HPLC method analysed (see Annex). pH value-analysis of the WX-UK1 solution was carried out by means of a potentiometric method at 20-25° C.

[4] = Earlier investigations: addition of phosphate buffer to WX-UK1 solutions
[5] = Preliminary testing: solubility of WX-UK1 in solvents and solvent mixtures; conditions: in polyols, for example diols, and in mixtures of polyol/alcohol and water
Text: Both solvents are additionally suitable for parenteral administration of active ingredients.
FIG. 1 is a Table showing the maximum solubility of WX-UK1 in various solvents and solvent mixtures.

For CCOC(=O)N1CCN(C(=O)[C@H](Cc2cccc(C(=N)N)c2)NS(=O)(=O)c2c(C(C)C)cc(C(C)C)cc2C(C)C)CC1 [WX-UK1, Nα-(2,4,6-triisopropylphenylsulfonyl)-3-amidino-(L)-phenylalanine-4-ethoxycarbonylpiperazide], the “stability (breakdown, HPLC)” value ([1]; acidic pH (pH 2)) was “remained stable”, the “stability (breakdown, HPLC)” value ([1]; neutral or basic pH (pH 11)) was “moderate to rapid breakdown” and the rate of breakdown [2] was “considerable reduction in the rate of breakdown”. For the same compound, the “breakdown in relation to pH value of the solution” value [3] was “the higher is the pH value of the solution, the faster WX-UK1 breaks down”, the precipitate formation [4] was “formation of a precipitate” and the solubility [5] was “very good solubility”.
